Assay results as given in patent US12157746B2, “Tetrahydro-1H-pyrazino[2,1-a]isoindolylquinoline compounds for the treatment of autoimmune disease” (F. HOFFMANN-LA ROCHE AG, priority 2018, dated 2024).
Values after ≈ are worked out from the molar mass of the structure shown.

Columns and labels:
[1] = Human microsomal stability assay; format: in vitro ADME; details: human liver microsomes 0.5 mg/mL, 37° C., pH 7.4, NADPH regenerating system, 0-30 minutes
Experimental: Human Microsomal Stability Assay
Human liver microsomes (Cat. NO.: 452117, Corning, USA) were preincubated with test compound for 10 minutes at 37° C. in 100 mM potassium phosphate buffer, pH 7.4. The reactions were initiated by adding NADPH regenerating system. The final incubation mixtures contained […] test compound, 0.5 mg/mL liver microsomal protein, 1 mM MgCl2, 1 mM NADP, 1 unit/mL isocitric dehydrogenase and 6 mM isocitric acid in 100 mM potassium phosphate buffer, pH 7.4. After incubation times of 0, 3, 6, 9, 15 and 30 minutes at 37° C., 300 μL of cold ACN (including internal standard) was added to 100 μL incubation mixture to terminate the reaction. Following precipitation and centrifugation, 100 μL supernatant will be taken out and added 300 uL water. The amount of compound remaining in the samples was determined by LC-MS/MS. Controls of no NADPH regenerating system at zero and 30 minutes were also prepared and analyzed. The results were categorized as: low (<7.0 mLJmin/kg), medium (7.0-16.2 mL/min/kg) and high (16.2-23.2 mLJmin/kg).

[2] = test system: Balb/c 3T3 mouse fibroblasts; test: 3T3 in vitro phototoxicity assay; format: cell-based; details: Neutral Red uptake; for Phototoxicity factor: Factor=IC50(−UV)/IC50(+UV), cut-off factor >5; for IC50: Mus musculus, BALB/c3T3, light or radiation study, with approx. 5 J/cm2 UVA light
Text: 3T3 In Vitro Phototoxicity Assay
Phototoxicity is defined as a toxic response that is elicited after the first exposure of the skin to certain chemicals and subsequent exposure to light, or that is induced similarly by skin irradiation after systemic administration of a chemical substance. The assay used in this study is designed to detect the phototoxic potential of a chemical by using a simple in vitro cytotoxicity assay with Balb/c 3T3 mouse fibroblasts. The principle of this test is a comparison of the cytotoxicity of a chemical when tested with and without exposure to a non-toxic dose of UVA-light. Cytotoxicity is expressed as a dose dependent reduction of the growth rate of cells as determined by uptake of the vital dye Neutral Red one day after treatment.
A small amount of substance was weighed and formulated freshly in DMSO just before the start of the exposure of the cells. This stock solution or appropriate dilutions with DMSO were added to the cell suspensions to obtain the required final concentrations. All solutions were generally prepared in Eppendorf caps and discarded after use.
For this study the Neutral Red uptake (NRU) assay of Borenfreund and Puemer (Borenfreund, E, Puemer J A. Toxicity determined in vitro by morphological alterations and Neutral Red absorption. Toxicology Lett. 1985; 24:119-124) modified according to INVITTOX protocol No 78 (ERGATT/FRAME data bank of in vitro techniques in toxicology. INVITTOX PROTOCOL No 78. 3T3 NRU Phototoxicity Assay. March 1994) has been adapted to examine a possible phototoxic potential of the test item. This assay is based on the active uptake of the Neutral Red dye into the lysosomes of cultured murine fibroblasts. Because lysosomal membranes are known to be a site of action of many phototoxic compounds, this assay can provide a measure of potential for phototoxic injury.
A murine fibroblasts clone A 31 (ATCC no. CCL 163—passage No. 108) were cultured in 175 cm2 tissue culture grade flasks, containing sDMEM (Dulbecco's Minimal Essential Medium, supplemented with 10% fetal calf serum, 2 mM L-glutamine, 100 units/ml Penicillin and 100 μg/ml streptomycin) at 37° C. in a humidified atmosphere of 6% C02. Before cells approach confluence they were removed from flasks by trypsinisation. Prior to use in an assay, the cells were transferred to 96-well microtiter plates at a concentration of 1×10^4 cells/well in 100 μl volumes of sDMEM and allowed to attach for 24 h.
For incubation with murine fibroblasts, the test item was diluted in PBS/3% DMSO (detailed concentrations see in results).
Culture medium (Dulbecco's Modified Eagle Medium (DMEM), GlutaMAX (Gibco Ref 21885-025), 10% Fetal Bovine Serum (FBS) (Gibco Ref 10270-106), 100 IU/ml Penicillin and 100 μg/ml Streptomycin (Gibco Ref 15140-122)) was removed from the wells and murine fibroblasts were washed with PBS. Afterwards 100 μL of PBS/3% DMSO containing the test item was added and target cells were incubated for 1 h at 37° C. with 6% CO2.
For each test item the microtiter plates were prepared according to Table 4. “UVA plates” were exposed to approx. 5 J/cm2 UVA light, the “Dark plates” were kept in the dark and served as cytotoxicity control. Plates with chlorpromazine hydrochloride served as positive control. UV flux was measured with a UV-meter (Dr. Gröbel RM21).
Following UV irradiation, the test item was removed from the wells (one washing step with PBS) and replaced with sDMEM. Target cells were then incubated overnight at 37° C. in 6% CO2.
Each plate contained wells with cells and solvent but without test item which were either not incubated with Neutral Red solution (0% standard—S1) or were stained with Neutral Red (100% standard—S2) for calculation of the standard cell viability curve. Wells labeled with U01-U08 contained the different test item concentrations.
After the incubation the wells to be assayed were filled with 100 μL of the sDMEM containing Neutral Red. […]

With `C[C@@H]1CN(c2ccc(C#N)c3ncccc23)C[C@@H]2c3ccc(N4CCOC[C@@H](N)C4)cc3CN12` [Example 54B, 5-[(4R,10bS)-8-[(6S)-6-amino-1,4-oxazepan-4-yl]-4-methyl-3,4,6,10b-tetrahydro-1H-pyrazino[2,1-a]isoindol-2-yl]quinoline-8-carbonitrile] as the compound, how does the “CL (h)” value [1] read?
The value was 7.0 mL/min/kg.

What about the Phototoxicity factor [2] of the same compound?
The Phototoxicity factor was 1.00.

What about the IC50 [2] of the same compound?
Its IC50 is > 100 µg/mL.

Which “CL (h)” value [1] does the source give for `C[C@@H]1CN(c2ccc(C#N)c3ncccc23)C[C@@H]2c3ccc(N[C@H]4CNC[C@H]4F)cc3CN12` [Example 30, 5-[(4R,10bS)-8-[[(3S,4R)-4-fluoropyrrolidin-3-yl]amino]-4-methyl-3,4,6,10b-tetrahydro-1H-pyrazino[2,1-a]isoindol-2-yl]quinoline-8-carbonitrile] here?
The value was 8.8 mL/min/kg.

And the Phototoxicity factor [2]?
The Phototoxicity factor was >1.9.

What about the IC50 [2] of the same compound?
The IC50 was 54.6 µg/mL (≈ 123 µM).

With `[2H]c1ccc2c(N3C[C@@H](C)N4Cc5cc(N6CC7CNCC(C6)O7)ccc5[C@H]4C3)ccc(C#N)c2n1` [Example 93, 5-[(4R,10bS)-4-methyl-8-(9-oxa-3,7-diazabicyclo[3.3.1]nonan-3-yl)-3,4,6,10b-tetrahydro-1H-pyrazino[2,1-a]isoindol-2-yl]-2-deuterio-quinoline-8-carbonitrile] as the compound, how does the “CL (h)” value [1] read?
Its value is 8.4 mL/min/kg.

With `C[C@@H]1CN(c2ccc(C#N)c3ncccc23)C[C@@H]2c3ccc(N4CC5CNCC(C4)O5)cc3CN12` [Example 14, 5-[(4R,10bS)-4-methyl-8-(9-oxa-3,7-diazabicyclo[3.3.1]nonan-3-yl)-3,4,6,10b-tetrahydro-1H-pyrazino[2,1-a]isoindol-2-yl]quinoline-8-carbonitrile] as the compound, how does the “CL (h)” value [1] read?
The value was 6.2 mL/min/kg.

And the Phototoxicity factor [2]?
The Phototoxicity factor was 1.00.

What about the IC50 [2] of the same compound?
Its IC50 is > 100 µg/mL.

Which “CL (h)” value [1] does the source give for `C[C@@H]1CN(c2ccc(C#N)c3ncccc23)C[C@@H]2c3ccc(N4CCOC5CNCC54)cc3CN12` (stereo partly drawn) [Example 52, 5-[(4R,10bS)-8-(3,4a,5,6,7,7a-hexahydro-2H-pyrrolo[3,4-b][1,4]oxazin-4-yl)-4-methyl-3,4,6,10b-tetrahydro-1H-pyrazino[2,1-a]isoindol-2-yl]quinoline-8-carbonitrile] here?
The value was 8.1 mL/min/kg.

Which “CL (h)” value [1] does the source give for `C[C@@H]1CN(c2ccc(C#N)c3ncccc23)C[C@@H]2c3ccc(N4CC5(CNC5)C4)cc3CN12` [Example 36, 5-[(4R,10bS)-8-(2,6-diazaspiro[3.3]heptan-2-yl)-4-methyl-3,4,6,10b-tetrahydro-1H-pyrazino[2,1-a]isoindol-2-yl]quinoline-8-carbonitrile] here?
The value was 6.2 mL/min/kg.

Which “CL (h)” value [1] does the source give for `C[C@@H]1CN(c2ccc(C#N)c3ncccc23)C[C@@H]2c3ccc(N4CCN[C@H](CO)C4)cc3CN12` [Example 12, 5-[(4R,10bS)-8-[(3S)-3-(hydroxymethyl)piperazin-1-yl]-4-methyl-3,4,6,10b-tetrahydro-1H-pyrazino[2,1-a]isoindol-2-yl]quinoline-8-carbonitrile] here?
The value was 6.2 mL/min/kg.

With `C[C@@H]1CN(c2ccc(C#N)c3ncccc23)C[C@@H]2c3ccc(N4CCOCC(N)C4)cc3CN12` (stereo partly drawn) [Example 54, 5-[(4R,10bS)-8-(6-amino-1,4-oxazepan-4-yl)-4-methyl-3,4,6,10b-tetrahydro-1H-pyrazino[2,1-a]isoindol-2-yl]quinoline-8-carbonitrile] as the compound, how does the “CL (h)” value [1] read?
The value was 8.9 mL/min/kg.

For `C[C@@H]1CN(c2ccc(C#N)c3ncccc23)C[C@@H]2c3ccc(N4CC5(CN(C)C5)C4)cc3CN12` [Example 38, 5-[(4R,10bS)-4-methyl-8-(6-methyl-2,6-diazaspiro[3.3]heptan-2-yl)-3,4,6,10b-tetrahydro-1H-pyrazino[2,1-a]isoindol-2-yl]quinoline-8-carbonitrile], which “CL (h)” value [1] is on record?
The value was 6.2 mL/min/kg.

Which “CL (h)” value [1] does the source give for `C[C@@H]1CN(c2ccc(C#N)c3ncccc23)C[C@@H]2c3ccc(N4C[C@@H](N)[C@](C)(O)C4)cc3CN12` [Example 45, 5-[(4R,10bS)-4-methyl-8-[trans-(3R,4R)-4-amino-3-hydroxy-3-methyl-pyrrolidin-1-yl]-3,4,6,10b-tetrahydro-1H-pyrazino[2,1-a]isoindol-2-yl]quinoline-8-carbonitrile] here?
Its value is 6.2 mL/min/kg.

What does the source list for `C[C@@H]1CN(c2ccc(C#N)c3ncccc23)C[C@@H]2c3ccc(N4CC(C)(N)C4)cc3CN12` [Example 39, 5-[(4R,10bS)-8-(3-amino-3-methyl-azetidin-1-yl)-4-methyl-3,4,6,10b-tetrahydro-1H-pyrazino[2,1-a]isoindol-2-yl]quinoline-8-carbonitrile]?
CL (h) [1]: 6.2 mL/min/kg; Phototoxicity factor [2]: 1.00; IC50 [2]: > 100 µg/mL

For `C[C@@H]1CN(c2ccc(C#N)c3ncccc23)C[C@@H]2c3ccc(N4CCNC[C@H]4CO)cc3CN12` [Example 11, 5-[(4R,10S)-8-[(2S)-2-(hydroxymethyl)piperazin-1-yl]-4-methyl-3,4,6,10b-tetrahydro-1H-pyrazino[2,1-a]isoindol-2-yl]quinoline-8-carbonitrile], which “CL (h)” value [1] is on record?
The value was 6.2 mL/min/kg.

For `C[C@@H]1CN(c2ccc(C#N)n3nccc23)C[C@@H]2c3ccc(N4CC[C@@H](N)C4)cc3CN12` [Example 96, 4-[(4R,10bS)-8-[(3R)-3-aminopyrrolidin-1-yl]-4-methyl-3,4,6,10b-tetrahydro-1H-pyrazino[2,1-a]isoindol-2-yl]pyrazolo[1,5-a]pyridine-7-carbonitrile], which “CL (h)” value [1] is on record?
Its value is 6.2 mL/min/kg.

Which results are given for `CO[C@@H]1CN(c2ccc3c(c2)CN2[C@H](C)CN(c4ccc(C#N)n5nccc45)C[C@H]32)C[C@H]1N` [Example 94, 4-[(4R,10bS)-8-[(3R,4R)-3-amino-4-methoxy-pyrrolidin-1-yl]-4-methyl-3,4,6,10b-tetrahydro-1H-pyrazino[2,1-a]isoindol-2-yl]pyrazolo[1,5-a]pyridine-7-carbonitrile]?
Phototoxicity factor [2]: 1.99; IC50 [2]: 39 µg/mL (≈ 87.9 µM)
